Ki data for 2 compounds are collected here from patent US7528138B2, “Pyrazolo[1,5-a]pyrimidines useful as inhibitors of protein kinases” (Vertex Pharmaceuticals Incorporated, priority 2004, dated 2009).

The target of this assay is Aurora-B (Homo sapiens, UniProt Q96GD4). Kind of assay: Aurora B (Aurora-1) Inhibition Assay, 33P incorporation. It counts as biochemical. Particulars: enzyme inhibition data (Ki), Table 11; read-out: AurB Ki. Here is the method: An assay buffer solution is prepared which consists of 25 mM HEPES (pH 7.5), 10 mM MgCl2, 0.1% BSA and 10% glycerol. A 22 nM Aurora-B solution, also containing 1.7 mM DTT and 1.5 mM Kemptide (LRRASLG), is prepared in assay buffer. To 22 μL of the Aurora-B solution, in a 96-well plate, is added 2 μl of a compound stock solution in DMSO and the mixture is allowed to equilibrate for 10 minutes at 25° C. The enzyme reaction is initiated by the addition of 16 μl stock [γ-^33P]-ATP solution (˜20 nCi/μL) prepared in assay buffer, to a final assay concentration of 800 μM. The reaction is stopped after 3 hours by the addition of 16 μL 500 mM phosphoric acid and the levels of ^33P incorporation into the peptide substrate is determined by the following method.
Sequence of Aurora-B (Q96GD4 whole entry): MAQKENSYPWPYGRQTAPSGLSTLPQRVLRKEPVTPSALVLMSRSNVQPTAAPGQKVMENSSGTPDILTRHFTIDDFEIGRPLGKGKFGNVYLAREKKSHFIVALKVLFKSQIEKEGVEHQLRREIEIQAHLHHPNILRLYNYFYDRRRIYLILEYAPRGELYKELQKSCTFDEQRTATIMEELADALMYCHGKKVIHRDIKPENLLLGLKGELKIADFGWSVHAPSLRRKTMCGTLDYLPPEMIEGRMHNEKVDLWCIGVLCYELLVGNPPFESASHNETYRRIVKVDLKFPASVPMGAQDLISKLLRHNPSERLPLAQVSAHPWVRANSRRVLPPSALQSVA
A phosphocellulose 96-well plate (Millipore, Cat no. MAPHNOB50) is pre-treated with 100 μL of a 100 mM phosphoric acid prior to the addition of the enzyme reaction mixture (40 μL). The solution is left to soak on to the phosphocellulose membrane for 30 minutes and the plate subsequently is washed four times with 200 μL of a 100 mM phosphoric acid. To each well of the dry plate is added 30 μL of Optiphase ‘SuperMix’ liquid scintillation cocktail (Perkin Elmer) prior to scintillation counting (1450 Microbeta Liquid Scintillation Counter, Wallac). Levels of non-enzyme catalysed background radioactivity are determined by adding 16 μL of the 500 mM phosphoric acid to control wells, containing all assay components (which acts to denature the enzyme), prior to the addition of the [γ-^33P]-ATP solution. Levels of enzyme catalysed ^33P incorporation are calculated by subtracting mean background counts from those measured at each inhibitor concentration. For each Ki determination 8 data points, typically covering the concentration range 0-10 μM compound, are obtained in duplicate (DMSO stocks are prepared from an initial compound stock of 10 mM with subsequent 1:2.5 serial dilutions). Ki values are calculated from initial rate data by non-linear regression using the Prism software package (Prism 3.0, Graphpad Software, San Diego, Calif.).

The term Ki denotes the equilibrium dissociation constant of an inhibitor or competing ligand from its target. As for `Cc1cnc2c(-c3cc(NC(C)C)ncn3)c(N)nn2c1` [Compound V-273], the Ki lay in the range of 0.5 to 5 µM.

On to `COc1ccccc1Nc1cc(-c2c(N)nn3cc(C)cnc23)ncn1` [Compound V-274], for which the Ki lay in the range of 0.5 to 5 µM.
